Patent US20070117180A1, “Enzyme producing plasma protein fragment having inhibitory activity to metastasis and growth of cancer and plasma protein fragment produced by fragmentation by said enzyme” (priority 1998, published 2007)

Key:
[1] = test system: BCE (Bovine capillary endothelial); assay: Inhibition of BCE vascular growth by fibronectin degraded products; format: cell-based
Description: (§1) The present inventors focused on fibronectin, a plasma component that is produced in great deal under cancerous conditions and is deeply involved in cell adhesion, and cleaved this with the enzyme of the present invention. […] The degraded products produced by the enzyme from fibronectin were separated with heparin Sepharose (Pharmacia). […] The obtained degraded products were estimated for their inhibitory activity to vascularization in the vascular endothelial cell system as described above.

[2] = test system: vascular endothelial cells; assay: Inhibitory activity to growth of the vascular endothelial cells of plasma protein fragments produced by PACE4; format: cell-based; details: as described in Example 13
Description: as §1
Moreover, the present inventors also cleaved several kinds of fractions obtained from alcoholic fractionation of plasma proteins with the enzyme of the present invention. Alcohol was removed from alcoholic fractions by dialysis, followed by dialysis with citric phosphate buffer (pH 4.0). The resulting fractions were mixed with the enzyme at a ratio of the protein to the enzyme, 100:1, and the mixture was reacted at 38° C. overnight. […]
A test for inhibitory activity to growth of vascular endothelial cells was performed as described by Gately et al. using Human Umbilical vein endothelial (HUV) cells (HUVEC; Sanko Jun-yaku K.K.). […] The cells were peeled off the well with trypsin/EDTA solution and counted with Coulter counter (manufactured by Coulter). […]

[3] = test system: bovine aorta endothelial (BAE) cells; assay: Test for inhibitory activity to growth of vascular endothelial cells, bovine aorta endothelial cells; format: cell-based; set-up: dose or concentration left out as unconfirmed; details: cell count after 72 hours; plasminogen fragments
Experimental: The activity of the plasminogen fragments was also estimated as described by O'Reilly et al. using bovine aorta endothelial (BAE) cells purchased from Sanko Jun-yaku K.K. BAE cells were cultured for maintenance on a 24-well plate (manufactured by Iwaki Glass K.K.) coated with gelatin in a DMEM basal medium containing 10% fetal calf serum (FCS), 3 ng/ml basic FGF (bFGF), 1% glutamine, 1% penicillin and 1% streptomycin at 5% CO2. BAE cells were plated on a 24-well gelatin-coated plate at 12,500 cells/well and cultured on the basal medium deprived of bFGF for 24 hours. […] contained 5% FCS but was deprived of bFGF and the plasminogen fragments were reacted with the cells at 37° C. for 20 minutes. A physiological saline was used as a negative control whereas angiostatin (Angiostatin, manufactured by Technoclone) was used as a positive control. After reaction, the basal medium containing 5% FCS and 2 ng/ml bFGF was added and the cells were cultured at 37° C. for additional 72 hours. The cells were peeled off the well with trypsin/EDTA solution and counted with Coulter counter (manufactured by Coulter).

Lewis lung cancer cells = assay: Inhibitory activity of PACE4 to growth of metastasized cancerous focus in immunodeficient mice (lung weight, FIG. 9); format: in vivo, immunodeficient (Scid) mice
Description: As a system for estimating inhibitory effects to growth of metastasized cancerous focus of PACE4 per se, immunodeficient (Scid) mice were employed. Lung cancer cells (3LL; provided from Cell Resource Center for Biomedical Research, Institute of Development, Aging and Cancer, Tohoku University) were subcutaneously transplanted to Scid mice at the back. The animals were bred until a primary cancerous focus grows up to a predetermined size. So that severity of disease conditions is taken into consideration, mice were divided into two groups based on the size of a primary cancerous focus; one with a primary cancerous focus weighing not more than 1200 mg and the other with a primary cancerous focus weighing more than 1200 mg. The primary cancerous focus in each group was removed surgically. Each group was then further divided into three groups: a group receiving a high or low concentration of PACE4, and a control group. The sample was administered to mice intraperitoneally at 40 μg/mouse/day or 8 μg/mouse/day for 10 days. As a control, the same amount of physiological saline, as used for dissolving the lyophilized sample, was administered to mice.
After completion of test, mice were dissected and the lung was weighed and compared with the control group (Mann Whetney U test).
To immunodeficient mice of 6 weeks old were transplanted subcutaneously 10^6 Lewis lung cancer cells (LL/2) at the back. The animals were bred for 14 to 17 days and cancer (primary cancerous focus) formed at the back was surgically removed. Based on size of the primary cancerous focus formed, the animals were divided into two groups: one with the primary cancerous focus of not more than 1200 mg (200 mg to 1200 mg) and the other of more than 1200 mg (1201 mg to 2500 mg). Each of these two groups was further divided into three groups: ones that received a high or low dose of the enzyme of the present invention (PACE4) and control. […]

plasmin = assay: Remaining plasmin activity after cleavage by PACE4 (FIG. 8); format: biochemical; details: with passage of time of cleavage by PACE4
Description: Moreover, the enzyme of the present invention, producing angiostatin that comprises Kringles 1 to 4, also cleaves plasmin in the vicinity of its active center (between the 699th Phe and 700th Ala) to let plasmin be inactivated. This cleaving property of the enzyme is quite significant in view of efficient protection against cancer development. This is because angiostatin that inhibits growth of cancer is produced by fragmentation of plasminogen while the simultaneously produced active center of plasmin (plasmin serine protease domain) possibly further promotes cancer development. In addition, it is possible that vascularization and cancer invasion accelerated by the plasmin activity is further accelerated by removal of the Kringle domains. This is because such removal of the Kringle domains would attenuate the inhibitory activity of plasmin-inhibitory proteins occurring within the living body, including alpha 2 plasmin inhibitor (hereinafter referred to as “α2-PI”). Plasmin present in plasma is immediately inactivated by α2-PI circulating in the blood stream wherein the Kringle domains serve as a binding site between plasmin and α2-PI. Deprivation of the domains much reduces the activity of […]. […]

plasminogen = assay: Fragmentation of plasminogen by purified PACE4 at pH 7.0 or pH 4.0 (FIG. 6); format: biochemical, human; details: reacted at neutral and acidic ranges of pH
Experimental: FIG. 6 depicts fragmentation patterns of plasminogen when reacted at neutral and acidic ranges of pH. […] In FIG. 6, the arrow A (→A) indicates a band corresponding to angiostatin from PC-3 according to Gately et al. whereas the arrow B (→B) indicates a band corresponding to a fragment comprising Kringles 1 to 4 produced by PACE4. […] The N-terminal amino acid residue of each fragment was analyzed to be F-74 for A, P-452 for B and A-700 for C, respectively.

fibronectin
inhibitory ability to BCE vascular growth [1]: not found | growth of the vascular endothelial cells (FIG. 15) [2]: no such inhibitory activity

angiostatin [reference compound]
inhibitory activity to growth of the vascular endothelial cells [3]: exhibited the inhibitory activity

PACE4: about 45 kDa aspartic enzyme purified from PC-3 culture supernatant, N-terminus LVRIPLHKFT, high homology to human cathepsin D precursor
inhibitory activity to growth of metastasized cancerous focus (lung weight) (Lewis lung cancer cells; primary cancerous focus more than 1200 mg (B), 40 or 8 μg/mouse/day i.p. for 10 days, 3LL cells): exhibited inhibitory activity to growth of metastasized cancerous focus in a concentration dependent manner | inhibitory activity to increase in lung weight (Lewis lung cancer cells; primary cancerous focus more than 1200 mg, 10 or 2 μg/animal i.p. for 10 days, LL/2 cells): observed in a dose dependent manner | lung weight, PACE4 administration versus control (Lewis lung cancer cells; primary cancerous focus not more than 1200 mg, 10 or 2 μg/animal i.p. for 10 days, LL/2 cells): no significant difference | remaining plasmin activity (plasmin): plasmin activity disappears | pH range at which plasminogen is fragmented (plasminogen): only at an acidic range of pH
